# Key:
# [1] = system: water channel aquaporin 2 (AQP2); settings: rat kidney collecting duct system, high dose; cited from earlier work
# Male Sprague Dawley rats = assay: Metabolic cage study of rats fed diet containing R2-ADN or adenine (Example 1, Table 1); assay type: in vivo, rat; settings: for Urine osmolality, Average Baseline / Urine osmolality, Baseline Day 1 / Urine osmolality, Baseline Day 2: baseline before treatment; for Urine osmolality, Day 1: treatment day 1; for Urine osmolality, Day 2: treatment day 2; for Urine osmolality, Day 3: treatment day 3; for Urine osmolality, Day 4: treatment day 4; for Urine osmolality, Day 5: treatment day 5; for Urine osmolality, Day 6: treatment day 6
# Text: The effects of R2-ADN on these physiologic parameters are dose- and time-dependent.
# In addition, the effects of adenine (ADN) were compared to those of R2-ADN on these physiologic parameters.
# Male Sprague Dawley rats were placed in metabolic cages and fed powdered rodent chow with access to distilled water ad libitum. After adjustment, baseline data were collected for 2 days and then rats were randomly divided into different groups. […]
# salt transporter NKCC2 = settings: rat kidney medullary thick ascending limb, high dose; cited from earlier work
# Rats = assay: Metabolic cage study of rats fed diet supplemented with R3-AND or R4-AND (Example 2); assay type: in vivo, rat; settings: for food intake / water intake / urine volume / urine osmolality: day 4, in diet (R4-ADN at 0.15% weight/weight); for food intake: vs control (FIG. 7A); for water intake: vs control (FIG. 7B); for urine volume: vs control (FIG. 7C); for urine osmolality: vs control (FIG. 7D)
# 45 strains of mice = settings: single oral dose; cited from earlier work
# [2] = system: primary human hepatocytes; settings: in vitro; cited from earlier work
# [3] = rats of the 0.15% in diet group
# [4] = rats of the 0.20% in diet group
# [5] = rats of the 0.25% in diet group
# [6] = rats, 0.15% in diet, adenine vs R2-ADN
structure (smiles),measurement,setting,value
"Nc1ncnc2nc[nH]c12 [ADN, adenine]",AQP2 gene expression and protein abundance,[1],decreasing the gene expression and protein abundance
same,"Urine osmolality, Average Baseline",Male Sprague Dawley rats; [3],1890 mosm/kg H2O
same,"Urine osmolality, Baseline Day 1",Male Sprague Dawley rats; [3],1848 mosm/kg H2O
same,"Urine osmolality, Baseline Day 2",Male Sprague Dawley rats; [3],1933 mosm/kg H2O
same,"Urine osmolality, Average Baseline",Male Sprague Dawley rats; [4],1619 mosm/kg H2O
same,"Urine osmolality, Baseline Day 1",Male Sprague Dawley rats; [4],1638 mosm/kg H2O
same,"Urine osmolality, Baseline Day 2",Male Sprague Dawley rats; [4],1599 mosm/kg H2O
same,"Urine osmolality, Average Baseline",Male Sprague Dawley rats; [5],1529 mosm/kg H2O
same,"Urine osmolality, Baseline Day 1",Male Sprague Dawley rats; [5],1648 mosm/kg H2O
same,"Urine osmolality, Baseline Day 2",Male Sprague Dawley rats; [5],1410 mosm/kg H2O
same,urine osmolality,Male Sprague Dawley rats; [6],no effect
same,urine volume / daily water balance,Male Sprague Dawley rats; [6],no effect
same,"Urine osmolality, Day 1","Male Sprague Dawley rats; rats, 0.15% in diet",1750 mosm/kg H2O
same,"Urine osmolality, Day 2","Male Sprague Dawley rats; rats, 0.15% in diet",1752 mosm/kg H2O
same,"Urine osmolality, Day 3","Male Sprague Dawley rats; rats, 0.15% in diet",1770 mosm/kg H2O
same,"Urine osmolality, Day 4","Male Sprague Dawley rats; rats, 0.15% in diet",1671 mosm/kg H2O
same,"Urine osmolality, Day 5","Male Sprague Dawley rats; rats, 0.15% in diet",1700 mosm/kg H2O
same,"Urine osmolality, Day 6","Male Sprague Dawley rats; rats, 0.15% in diet",1738 mosm/kg H2O
same,"Urine osmolality, Day 1","Male Sprague Dawley rats; rats, 0.20% in diet",1475 mosm/kg H2O
same,"Urine osmolality, Day 2","Male Sprague Dawley rats; rats, 0.20% in diet",1371 mosm/kg H2O
same,"Urine osmolality, Day 3","Male Sprague Dawley rats; rats, 0.20% in diet",1354 mosm/kg H2O
same,"Urine osmolality, Day 4","Male Sprague Dawley rats; rats, 0.20% in diet",1296 mosm/kg H2O
same,"Urine osmolality, Day 5","Male Sprague Dawley rats; rats, 0.20% in diet",1279 mosm/kg H2O
same,"Urine osmolality, Day 6","Male Sprague Dawley rats; rats, 0.20% in diet",1386 mosm/kg H2O
same,"Urine osmolality, Day 1","Male Sprague Dawley rats; rats, 0.25% in diet",1198 mosm/kg H2O
same,"Urine osmolality, Day 2","Male Sprague Dawley rats; rats, 0.25% in diet",848 mosm/kg H2O
same,"Urine osmolality, Day 3","Male Sprague Dawley rats; rats, 0.25% in diet",976 mosm/kg H2O
same,"Urine osmolality, Day 4","Male Sprague Dawley rats; rats, 0.25% in diet",1019 mosm/kg H2O
same,"Urine osmolality, Day 5","Male Sprague Dawley rats; rats, 0.25% in diet",938 mosm/kg H2O
same,"Urine osmolality, Day 6","Male Sprague Dawley rats; rats, 0.25% in diet",956 mosm/kg H2O
same,NKCC2 gene expression and protein abundance,salt transporter NKCC2,decreasing the gene expression and protein abundance
"Nc1nc(Cl)nc2nc[nH]c12 [R2-ADN, 2-chloro-6-aminopurine]",potency relative to adenine in effects on water handling / water loss by the kidney,Male Sprague Dawley rats; rats,more potent than adenine
same,"Urine osmolality, Average Baseline",Male Sprague Dawley rats; [3],1558 mosm/kg H2O
same,"Urine osmolality, Baseline Day 1",Male Sprague Dawley rats; [3],1614 mosm/kg H2O
same,"Urine osmolality, Baseline Day 2",Male Sprague Dawley rats; [3],1502 mosm/kg H2O
same,water intake,"Male Sprague Dawley rats; rats, 0.075%, 0.15% or 0.25% in diet, 7 days, vs baseline and control, dose- and time-dependent (FIGS. 1A-1D)",significant increase
same,urine volume,"Male Sprague Dawley rats; rats, 0.075%, 0.15% or 0.25% in diet, 7 days, vs baseline and control, dose- and time-dependent (FIGS. 2A-2D)",significant increase
same,urine osmolality,"Male Sprague Dawley rats; rats, 0.075%, 0.15% or 0.25% in diet, 7 days, vs baseline or control, dose- and time-dependent (FIGS. 3A-3D)",sharp reduction
same,urine osmolality,Male Sprague Dawley rats; [6],significantly impaired
same,urine volume / daily water balance,Male Sprague Dawley rats; [6],significantly impaired
same,"Urine osmolality, Day 1","Male Sprague Dawley rats; rats, 0.15% in diet",1085 mosm/kg H2O
same,"Urine osmolality, Day 2","Male Sprague Dawley rats; rats, 0.15% in diet",625 mosm/kg H2O
same,"Urine osmolality, Day 3","Male Sprague Dawley rats; rats, 0.15% in diet",720 mosm/kg H2O
same,"Urine osmolality, Day 4","Male Sprague Dawley rats; rats, 0.15% in diet",649 mosm/kg H2O
same,"Urine osmolality, Day 5","Male Sprague Dawley rats; rats, 0.15% in diet",657 mosm/kg H2O
same,"Urine osmolality, Day 6","Male Sprague Dawley rats; rats, 0.15% in diet",508 mosm/kg H2O
same,reduction in urine osmolality,"Male Sprague Dawley rats; rats, 0.15% in diet, within the second day of treatment",~60%
same,food intake,"Male Sprague Dawley rats; rats, high dose (0.25%), day 7 of feeding",significant reduction
same,food intake,"Male Sprague Dawley rats; rats, lower doses in diet (FIGS. 4A-4D)",did not significantly alter
same,changes in body weight,"Male Sprague Dawley rats; rats, vs control group (FIGS. 5A-5D)",impacted the changes in body weight
"O=C(Nc1ncnc2nc[nH]c12)c1ccccc1 [R3-AND, N6-benzoyladenine]",food intake,Rats,none of the measured parameters
same,water intake,Rats,none of the measured parameters
same,urine volume,Rats,none of the measured parameters
same,urine osmolality,Rats,none of the measured parameters
"CN(C)c1ncnc2nc[nH]c12 [R4-ADN, 6-(Dimethylamino) purine]",potency relative to adenine in increasing water loss by the kidney,Rats,more potent than adenine
same,food intake,Rats,significant reduction
same,water intake,Rats,significant increase
same,urine volume,Rats,significant increase
same,urine osmolality,Rats,sharp reduction
Cc1ccccc1C(=O)Nc1ccc(C(=O)N2CCCC(O)c3cc(Cl)ccc32)c(C)c1 (stereo not shown) [tolvaptan],signs of liver injury mechanisms,45 strains of mice,"signs of mitochondrial dysfunction, increased oxidative stress, and activation of immune response"
same,hepatocyte toxicity,[2],causes mitochondrial-induced apoptosis and oxidative stress

# Source: patent US20250082640A1, “Therapeutics for Hyponatremia and Polycystic Kidney Disease” (University of Cincinnati, priority 2021, published 2025)
